Reference: patent US20160115540A1, “PRODRUGS AND DRUGS” (Biogen MA Inc., priority 2013, published 2016)
Where a name gives a salt, the structure may show the parent alone.

System: kidney
Assay: Transcriptional profiling on Affymetrix GeneChips, single dose, naïve mice: kidney
Assay type: in vivo, C57BL/6 mice
Details: kidney; 100MMF-vs-Veh, 12 h
Method: Treated mice were sacrificed at 2, 7, or 12 hours. Tissues (liver, spleen, kidney, jejunum, cortex, hippocampus, striatum and whole blood) were collected and analyzed by transcriptional profiling on mouse Affymetrix GeneChips.
Tissues (liver, spleen, kidney, jejunum, cortex, hippocampus, striatum and whole blood) were collected and analyzed by transcriptional profiling on mouse Affymetrix GeneChips.
Animals were exposed to CO2 and whole blood collected via cardiac puncture. Two 100 μl aliquots of whole blood were collected in 1.5 mL microcentrifuge tubes and snap frozen in liquid nitrogen. Peripheral (liver, spleen, kidney and jejunum) and CNS brain (cerebellum, hippocampus, striatum and cortex) tissues were harvested and snap frozen in liquid nitrogen, with special care taken to collect tissues of similar size and from the same location. All samples were stored at −80° C. until RNA extraction was conducted.
For RNA preparation, frozen tissues were placed in 2 mL RNAse-free 96-well blocks with 1.5 mL QIAzol Lysis Reagent (QIAgen) and a 3.2 mm stainless steel bead (BioSpec Products, Bartlesville, Okla.). Tissues were disrupted for four cycles of 45 seconds in a Mini-Beadbeater (Biospec Products). RNA was extracted in chloroform and the aqueous phase was mixed with an equal volume of 70% ethanol. Extracted RNA was applied to RNeasy 96 plates and purified by the spin method according to the manufacturer's protocol (RNeasy 96 Universal Tissue Protocol, QIAgen, Hilden Germany).
Automated sample amplifications and biotin labelings were carried out using the NuGEN Ovation RNA Amplification system V2 (Cat #3100), Ovation WB reagent (Cat #1300) and Encore Biotin module (Cat #4200) (NuGEN Technologies, Inc, San Carlos, Calif.) according to manufacturer's recommendations using an Arrayplex automated liquid handler (Beckman Coulter, Indianapolis, Ind.). Two micrograms of biotin labeled sscDNA probe were hybridized to Affymetrix GeneChip Affymetrix HT_MG-430_PM plate arrays with modified conditions as described in Allaire et al. Washing and staining of the hybridized arrays were completed as described in the GeneChip Expression analysis technical manual for HT plate arrays using the Genechip® Array Station (Affymetrix, Santa Clara, Calif.) with modifications as described in Allaire et al. The processed GeneChip® plate arrays were scanned using GeneTitan scanner (Affymetrix, Santa Clara, Calif.).
Affymetrix scans were subject to quality control (QC) measures. These tests included a visual inspection of the distribution of raw signal intensities and an assessment of RNA degradation, relative log expression (RLE), and normalized unsealed standard error (NUSE). All sample scans that passed these QC metrics were included in the analysis.
All CEL files were subjected to GC-content-based Robust Multi-array Average (GCRMA) normalization (version 2.20.0) (Irizarry R A, et al. Nucleic Acids Res 2003; 31:e15; Li C, et al. Genome Biol 2001; 2:[…]0032). Expression levels were log (base 2) transformed.
All calculations and analyses were carried out using R (version 2.11.1) and Bioconductor computational tools (Gentleman R. Springer Science+Business Media 2005).

With `COC(=O)/C=C/C(=O)O` [MMF, monomethyl fumarate] the “FC 9130221J18Rik (1446368_PM_at)” value was −1.53, the “FC AB099516 /// Higd1c (1447356_PM_at)” value was −1.57 and the “FC Abcc3 (1428988_PM_at)” value was 1.64. The “FC Abcc4 1443870_PM_at” value was 2.07, the “FC Acot1 (1449065_PM_at)” value was 1.59 and the “FC Acsm2 (1427224_PM_at)” value was −1.52. The “FC Agps 1434919_PM_at” value was −1.80, the “FC Akr1b8 (1448894_PM_at)” value was 1.68 and the “FC Akr1c19 (1455454_PM_at)” value was 2.00. The “FC Alas1 1424126_PM_at” value was 2.02, the “FC Alas1 (1455282_PM_x_at)” value was 1.70 and the “FC Alcam 1426300_PM_at” value was 2.83. For the same compound, the “FC Alcam 1426301_PM_at” value was 2.09, the “FC Alcam 1437467_PM_at” value was 1.93 and the “FC Arg2 (1438841_PM_s_at)” value was 2.63. For the same compound, the “FC Arhgap26 (1440688_PM_at)” value was −1.57, the “FC Asns 1433966_PM_x_at” value was 2.49 and the “FC Asns 1451095_PM_at” value was 2.87. For the same compound, the “FC Atp13a3 1442145_PM_at” value was 1.62, the “FC B4galt5 (1433617_PM_s_at)” value was −1.51 and the “FC BC060267 (1441979_PM_at)” value was 1.74. The “FC Bcat1 1430111_PM_a_at” value was −2.07, the “FC Bcat1 1450871_PM_a_at” value was −2.20 and the “FC Bcat1 1455699_PM_at” value was −2.27. For the same compound, the “FC Blvrb (1451386_PM_at)” value was 2.23, the “FC C3 (1423954_PM_at)” value was 2.34 and the “FC C8a (1428012_PM_at)” value was −1.51. The “FC Cbr1 (1460196_PM_at)” value was 2.10, the “FC Cbr3 (1427912_PM_at)” value was 7.02 and the “FC Cdkn1a (1424638_PM_at)” value was 2.73. The “FC Chrdl1 (1456722_PM_at)” value was −1.55, the “FC Cldn1 (1437932_PM_a_at)” value was 1.57 and the “FC D16Ertd778e 1445089_PM_at” value was −2.25. The “FC Dcdc2a (1459661_PM_at)” value was 1.69, the “FC Dnase2a (1430135_PM_at)” value was 2.15 and the “FC Dpys (1436291_PM_a_at)” value was 1.51. For the same compound, the “FC Endou 1449937_PM_at” value was 1.89, the “FC Ep400 (1449610_PM_at)” value was −1.67 and the “FC Esr1 1460591_PM_at” value was −1.54. The “FC Esr1 (1435663_PM_at)” value was −1.75, the “FC Fga (1424279_PM_at)” value was 1.79 and the “FC Fgf1 1450869_PM_at” value was −1.58. For the same compound, the “FC G6pdx (1448354_PM_at)” value was 1.70, the “FC Gclc (1455959_PM_s_at)” value was 1.64 and the “FC Gjb1 1448766_PM_at” value was 1.81. The “FC Gjb1 (1448767_PM_s_at)” value was 1.67, the “FC Gm5101 (1442588_PM_at)” value was −1.50 and the “FC Gpr135 1441944_PM_s_at” value was 1.59. For the same compound, the “FC Gpr135 1459274_PM_at” value was 1.65, the “FC Gpt (1426502_PM_s_at)” value was 1.51 and the “FC Gstm1 (1425627_PM_x_at)” value was 1.56. For the same compound, the “FC Gstm1 (1448330_PM_at)” value was 1.54, the “FC Gstm4 (1424835_PM_at)” value was 1.70 and the “FC Gstp1 (1449575_PM_a_at)” value was 1.54. The “FC Havcr1 1434716_PM_at” value was 4.79, the “FC Hfe 1450702_PM_at” value was 1.67 and the “FC Hist1h1c (1438204_PM_at)” value was 1.82. For the same compound, the “FC Hist1h2be 1440330_PM_at” value was 2.92, the “FC Hist1h2be (1445565_PM_at)” value was 2.48 and the “FC Ikbkg 1435646_PM_at” value was 1.76. The “FC Ikbkg 1454690_PM_at” value was 1.54, the “FC Kif20b 1439695_PM_a_at” value was −2.85 and the “FC Klk1b21 (1451607_PM_at)” value was 1.57. For the same compound, the “FC Lcp1 1448160_PM_at” value was 1.54, the “FC Lpar2 1442291_PM_at” value was 1.93 and the “FC Lrat (1444487_PM_at)” value was 1.72. The “FC Maf (1435828_PM_at)” value was 1.53, the “FC Maf (1447849_PM_s_at)” value was 1.54 and the “FC Myo5a (1431320_PM_a_at)” value was −2.35. For the same compound, the “FC Myo5a (1436051_PM_at)” value was −2.04, the “FC Nfia (1446742_PM_at)” value was −1.74 and the “FC Nqo1 (1423627_PM_at)” value was 2.11. For the same compound, the “FC Pank1 1457110_PM_at” value was −1.73, the “FC Pank2 1452733_PM_at” value was −1.97 and the “FC Pgd 1423706_PM_a_at” value was 2.27. For the same compound, the “FC Pgd 1438627_PM_x_at” value was 1.83, the “FC Pgd (1436771_PM_x_at)” value was 2.03 and the “FC Pgd (1437380_PM_x_at)” value was 2.05. The “FC Phlda3 (1449002_PM_at)” value was 1.81, the “FC Pigl (1440965_PM_at)” value was 1.52 and the “FC Pir (1429001_PM_at)” value was 3.08. The “FC Ptprr (1426047_PM_a_at)” value was 1.69, the “FC Rcor3 (1428343_PM_at)” value was −1.51 and the “FC Reep6 (1430128_PM_a_at)” value was 1.51. The “FC Rnf24 1436101_PM_at” value was −2.01, the “FC Slc5a3 (1440227_PM_at)” value was −1.50 and the “FC Slc8a1 (1437675_PM_at)” value was −1.86. The “FC Slc9a8 1454865_PM_at” value was −2.40, the “FC Slc22a14 (1440058_PM_at)” value was 1.54 and the “FC Slc39a8 (1448482_PM_at)” value was −1.55. The “FC Slc48a1 (1450409_PM_a_at)” value was 1.53, the “FC Slco2a1 (1444242_PM_at)” value was 1.63 and the “FC Slco4c1 (1437870_PM_at)” value was −1.69. The “FC Slco4c1 (1460616_PM_at)” value was −2.08, the “FC Smarca2 (1452333_PM_at)” value was −1.60 and the “FC Srxn1 (1425351_PM_at)” value was 1.89. For the same compound, the “FC Srxn1 (1426875_PM_s_at)” value was 1.91, the “FC Srxn1 (1451680_PM_at)” value was 2.09 and the “FC Tmc5 (1452934_PM_at)” value was 1.91. The “FC Tmie (1443964_PM_at)” value was 1.65, the “FC Trim16 (1460629_PM_at)” value was 1.51 and the “FC Txnrd1 (1424487_PM_x_at)” value was 1.74. The “FC Vps8 (1434050_PM_at)” value was −1.84 and the “FC Vps8 (1454810_PM_s_at)” value was −1.55.
